Reference: patent US20220395464A1, “ORALLY ADMINISTERED SOLID DOSAGE FORM DRUG” (ASCENTAWITS PHARMACEUTICALS, LTD., priority 2019, published 2022)
“And” between values parts separate entries of the source, which are not always exact repeats. Identical values can stand only once. Like-named read-outs stand apart in the source and are kept apart here.

Test: Pharmacokinetics after single intravenous drip infusion, plasma LC-MS/MS
Assay type: in vivo, Philippine macaques
Conditions: for Plasma-drug concentration: AST-3424 intravenous drip infusion 0.58 mg/kg
Experimental: AST-3424 and AST-3424-D6 (i.e. the compound of formula I) were administered to Philippine macaques by intravenous drip infusion, and blood samples were collected at different appointed times. LC-MS/MS was used to determine concentrations of the test substances in plasma of the Philippine macaques after administration, and relevant pharmacokinetic parameters were calculated.
Preparation method: 0.447 ml of AST-3424 (0.2 mg/ml) and 0.481 ml of AST-3424-D6 (0.2 mg/ml) were added into 104.272 ml of the dissolvent, respectively, and mixed for 5 minutes to obtain colorless and clarified solutions with pH 7.0.
The four male Philippine macaques were purchased from Guangxi Xiongsen Primate Development Experiment Co., Ltd. All Philippine macaques were healthy with qualified medical examination and no abnormality. Three of animals were used for the experiment, and one of them was used to prepare blank plasma.
About 0.8 ml of blood samples were collected through femoral vein and anticoagulated with heparin sodium. Appointed times of blood collection were before administration, 0.17, 0.25, 0.5, 0.75, 1, 2, and 4 hours after administration.
The blood samples were placed on ice after collection. Next, plasma samples were separated by centrifugation, and centrifugation conditions were 3500 rpm for 10 minutes at 4° C. Then, the collected plasma samples were stored at −80° C. until analysis. The plasma samples were analyzed by LC-MS/MS by an analysis department of an experimental institution. Besides, Lower limit of quantifications (LLOQ) of AST-3424 and AST-3424-D6 detection were 1 ng/ml. The accuracy of analysis results of an accompanying standard curve and a quality control samples all met the relevant requirements of biological analysis (the accuracy of the quality control samples exceeding 66.7% was between 85˜115%) in a process of the sample detection.
According to average blood concentration data of each group at each appointed time, the pharmacokinetic parameters of the compounds were respectively computed by a pharmacokinetic computing software, a non-compartmental model. In addition, the pharmacokinetic parameters were AUC0-t, AUC0-∞, MRT0-∞, Cmax, Tmax, t1/2, etc. In the case of the concentrations of the samples whose concentration being lower than a lower limit of quantification, the following schemes were used to compute the pharmacokinetic parameters. The samples sampled before reaching Cmax shall be computed as zero value, while the samples sampled after reaching Cmax shall be computed as non-quantifiable (marked as “BLQ”).
After a single intravenous infusion of the compounds AST-3424 and AST-3424-D6 was administered to the Philippine macaques, the whole blood samples of the corresponding animals were collected at the appointed times. Next, the whole blood samples were processed and biologically analyzed to obtain concentrations of the compounds in the plasma at the different appointed times. Results of the assay were listed in Table 14 below, and corresponding means of the plasma-drug concentration-time curves are shown in FIG. 3.
According to the plasma-drug concentration data of each drug group, the pharmacokinetic parameters of each compound group were computed using the non-compartmental model of the pharmacokinetic computing software. The pharmacokinetic

[1] = AST-3424 0.58 mg/kg single intravenous infusion, plasma, individual animals 101, 102, 103, 0.58 mg/kg

## C[C@H](OP(=O)(N1CC1)N1CC1)c1ccc([N+](=O)[O-])c(Oc2cccc(C(=O)N(C)C)c2)c1 [AST-3424, (S)-1-(3-(3-N,N-Dimethylaminocarbonyl)phenoxy-4-nitrophenyl)-1-ethyl-N,N′-bis(ethylene) phosphoramidate]
[1]
  AUC(0−t): 430.42 ng·h/mL and 474.63 ng·h/mL
  AUC(0−∞): 430.76 ng·h/mL and 475.04 ng·h/mL
  Cl: 22.4412 mL/min/kg and 20.3492 mL/min/kg
  Cmax: 677.40 ng/mL and 800.80 ng/mL
  MRT(0−t): 11.4 min
  MRT(0−∞): 11.4 min and 10.8 min
  T1/2: 10.8 min and 11.4 min
  Tmax: 15 min and 30 min and 10.2 min
  Vss: 0.26123 L/kg and 0.21373 L/kg
  Vz: 0.35358 L/kg and 0.33343 L/kg
0.17 hr, individual animals 101, 102, 103
  Plasma-drug concentration: 800.80 ng/mL and 685.96 ng/mL
0.25 hr, individual animals 101, 102, 103
  Plasma-drug concentration: 729.91 ng/mL and 695.61 ng/mL
0.5 hr, individual animals 101, 102, 103
  Plasma-drug concentration: 729.08 ng/mL and 679.80 ng/mL
0.75 hr, individual animals 101, 102, 103
  Plasma-drug concentration: 157.68 ng/mL and 118.92 ng/mL
1 hr, individual animals 101, 102, 103
  Plasma-drug concentration: 50.63 ng/mL and 31.86 ng/mL
2 hr, individual animals 101, 102, 103, LLOQ 1 ng/ml
  Plasma-drug concentration: 1.51 ng/ ml and BLQ
4 hr, individual animals 101, 102, 103, LLOQ 1 ng/ml
  Plasma-drug concentration: BLQ
male, Philippine macaque, cynomolgus monkey, plasma, iv, 0.58 mg/kg, AST-3424 0.58 mg/kg single intravenous infusion, plasma, individual animals 101, 102, 103, read-out: AUC(0−t)
  AUC(0-t): 404 ng·h/mL
male, Philippine macaque, cynomolgus monkey, plasma, iv, 0.58 mg/kg, AST-3424 0.58 mg/kg single intravenous infusion, plasma, individual animals 101, 102, 103, read-out: AUC(0−∞)
  AUC(0-inf): 409 ng·h/mL
male, Philippine macaque, cynomolgus monkey, plasma, iv, 0.58 mg/kg, AST-3424 0.58 mg/kg single intravenous infusion, plasma, individual animals 101, 102, 103, read-out: Cl (converted)
  clearance: 23.6 mL/min/kg
male, Philippine macaque, cynomolgus monkey, plasma, iv, 0.58 mg/kg, AST-3424 0.58 mg/kg single intravenous infusion, plasma, individual animals 101, 102, 103, read-out: Cmax
  Cmax: 696 ng/mL
male, Philippine macaque, cynomolgus monkey, plasma, iv, 0.58 mg/kg, AST-3424 0.58 mg/kg single intravenous infusion, plasma, individual animals 101, 102, 103, read-out: T1/2 (converted)
  half-life: 6.6 min
male, Philippine macaque, cynomolgus monkey, plasma, iv, 0.58 mg/kg, AST-3424 0.58 mg/kg single intravenous infusion, plasma, individual animals 101, 102, 103, read-out: Vss
  Vd: 0.202 L/kg
male, Philippine macaque, cynomolgus monkey, plasma, iv, 0.58 mg/kg, AST-3424 0.58 mg/kg single intravenous infusion, plasma, individual animals 101, 102, 103, read-out: Vz
  Vd: 0.231 L/kg
male, Philippine macaque, cynomolgus monkey, plasma, iv, 0.58 mg/kg, AST-3424 0.58 mg/kg single intravenous infusion, plasma, read-out: AUC(0−t), Mean
  AUC(0-t): 436 ± 35.6 ng·h/mL
male, Philippine macaque, cynomolgus monkey, plasma, iv, 0.58 mg/kg, AST-3424 0.58 mg/kg single intravenous infusion, plasma, read-out: AUC(0−∞), Mean
  AUC(0-inf): 438 ± 33.5 ng·h/mL
male, Philippine macaque, cynomolgus monkey, plasma, iv, 0.58 mg/kg, AST-3424 0.58 mg/kg single intravenous infusion, plasma, read-out: Cl, Mean (converted)
  clearance: 22.1 mL/min/kg
male, Philippine macaque, cynomolgus monkey, plasma, iv, 0.58 mg/kg, AST-3424 0.58 mg/kg single intravenous infusion, plasma, read-out: Cmax, Mean
  Cmax: 725 ± 66.6 ng/mL
male, Philippine macaque, cynomolgus monkey, plasma, iv, 0.58 mg/kg, AST-3424 0.58 mg/kg single intravenous infusion, plasma, read-out: MRT(0−t), Mean
  MRT last: 10.2 ± 1.8 min
male, Philippine macaque, cynomolgus monkey, plasma, iv, 0.58 mg/kg, AST-3424 0.58 mg/kg single intravenous infusion, plasma, read-out: MRT(0−∞), Mean
  MRT inf: 10.2 ± 1.8 min
male, Philippine macaque, cynomolgus monkey, plasma, iv, 0.58 mg/kg, AST-3424 0.58 mg/kg single intravenous infusion, plasma, read-out: T1/2, Mean (converted)
  half-life: 9.6 min
